{
  "source": "patent US20140154346A1",
  "about": "“USE OF FENUGREEK EXTRACT TO ENHANCE FEMALE LIBIDO” (GE NUTRIENTS, INC., priority 2012, published 2014)",
  "origin": "cited, not measured here",
  "tested_on": "women with hypoactive sexual disorder",
  "details": "300 μg/day, 12 months; also increase in desire and decrease in stress",
  "data": [
    {"compound": "C[C@]12CC[C@H]3[C@@H](CCC4=CC(=O)CC[C@@]43C)[C@@H]1CC[C@@H]2O", "note": "[testosterone]", "values": [
      {"measurement": "frequency of satisfying sexual encounters", "value": "increased frequency"}
    ]}
  ]
}
